Measurements published in patent US20110039721A1, “METHOD FOR PREDICTION ABOUT CARCINOGENICITY OF SUBSTANCE IN RODENT” (Chemicals Evaluation and Research Institute, priority 2007, published 2011).

How the values were obtained:
rodent = settings: classification of the substance (C+/C−); cited from earlier work
[1] = classification of the substance (M+/M−); cited from earlier work
[2] = tested on: mRNA expressed from the genes (A) to (D) in rat liver; test: Behavior of genes (mRNA expression level, oligo-DNA microarray) in rat liver after 28-day oral administration; type: in vivo; settings: mRNA vs vehicle control group
In short: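 Oral gavage, once daily × 28 days; male F344 SPF rats, 5 wk, n=4/group; vehicle controls given equal solvent volume. Liver excised day 28, total RNA purified. Significance: ≥1.5× or ≤1/1.5 of vehicle, direction concordant with other carcinogens.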

liver = settings: classification of the substance (Cr+/Cr−); cited from earlier work
[3] = gene group (A), Unigene No. Rn.167075
[4] = gene group (C), Unigene No. Rn.120914

ClC(Cl)=C(Cl)Cl [TS066, Tetrachloroethylene]
M−: Mutagenicity by Ames test [1]
+: Behavior of gene caused by administration of chemical substance, Gene No. 6182 ([2]; gene group (A), Unigene No. Rn.5834) | Behavior of gene caused by administration of chemical substance, Gene No. 2045 ([2]; gene group (B), Unigene No. Rn.19329) | Behavior of gene caused by administration of chemical substance, Gene No. 533 ([2]; gene group (C), Unigene No. Rn.106184)
C+: Carcinogenicity (rodent)
−: Behavior of gene caused by administration of chemical substance, Gene No. 4846 ([2]; gene group (A), Unigene No. Rn.144554) | Behavior of gene caused by administration of chemical substance, Gene No. 2026 [2, 3] | Behavior of gene caused by administration of chemical substance, Gene No. 4218 [2, 3] | Behavior of gene caused by administration of chemical substance, Gene No. 5600 ([2]; gene group (A), Unigene No. Rn.9836) | Behavior of gene caused by administration of chemical substance, Gene No. 1494 ([2]; gene group (B), Unigene No. Rn.1430) | Behavior of gene caused by administration of chemical substance, Gene No. 2203 ([2]; gene group (B), Unigene No. Rn.21240) | Behavior of gene caused by administration of chemical substance, Gene No. 725 ([2]; gene group (C), Unigene No. Rn.108075) | Behavior of gene caused by administration of chemical substance, Gene No. 1163 ([2]; gene group (C), Unigene No. Rn.11766) | Behavior of gene caused by administration of chemical substance, Gene No. 4973 ([2]; gene group (C), Unigene No. Rn.118529) | Behavior of gene caused by administration of chemical substance, Gene No. 4095 ([2]; gene group (C), Unigene No. Rn.119024) | Behavior of gene caused by administration of chemical substance, Gene No. 1334 [2, 4] | Behavior of gene caused by administration of chemical substance, Gene No. 6620 [2, 4] | Behavior of gene caused by administration of chemical substance, Gene No. 6303 ([2]; gene group (C), Unigene No. Rn.123063) | Behavior of gene caused by administration of chemical substance, Gene No. 5878 ([2]; gene group (C), Unigene No. Rn.143213) | Behavior of gene caused by administration of chemical substance, Gene No. 1131 ([2]; gene group (C), Unigene No. Rn.144946) | Behavior of gene caused by administration of chemical substance, Gene No. 1562 ([2]; gene group (C), Unigene No. Rn.14744) | Behavior of gene caused by administration of chemical substance, Gene No. 1741 ([2]; gene group (C), Unigene No. Rn.1647) | Behavior of gene caused by administration of chemical substance, Gene No. 893 ([2]; gene group (C), Unigene No. Rn.164817) | Behavior of gene caused by administration of chemical substance, Gene No. 6026 ([2]; gene group (C), Unigene No. Rn.167685) | Behavior of gene caused by administration of chemical substance, Gene No. 154 ([2]; gene group (C), Unigene No. Rn.185941) | Behavior of gene caused by administration of chemical substance, Gene No. 1993 ([2]; gene group (C), Unigene No. Rn.18728) | Behavior of gene caused by administration of chemical substance, Gene No. 813 ([2]; gene group (C), Unigene No. Rn.201760) | Behavior of gene caused by administration of chemical substance, Gene No. 2494 ([2]; gene group (C), Unigene No. Rn.23969) | Behavior of gene caused by administration of chemical substance, Gene No. 2546 ([2]; gene group (C), Unigene No. Rn.24561) | Behavior of gene caused by administration of chemical substance, Gene No. 3776 ([2]; gene group (C), Unigene No. Rn.43232) | Behavior of gene caused by administration of chemical substance, Gene No. 3929 ([2]; gene group (C), Unigene No. Rn.4620) | Behavior of gene caused by administration of chemical substance, Gene No. 1119 ([2]; gene group (C), Unigene No. Rn.9757) | Behavior of gene caused by administration of chemical substance, Gene No. 6742 ([2]; gene group (C), Unigene No. Rn.9779) | Behavior of gene caused by administration of chemical substance, Gene No. 5634 ([2]; gene group (C), Unigene No. Rn.9862) | Behavior of gene caused by administration of chemical substance, Gene No. 5726 ([2]; gene group (D), Unigene No. Rn.9939)
Cr−: Liver carcinogenicity (liver)
